Experimental data: patent publication US9226929B2, “Pharmaceutically active disubstituted triazine derivatives” (Bayer Intellectual Property GMBH, priority 2011, dated 2016)

Tests used:
CDK9/Cyclin T1 = biological target: T1, CDK9/Cyclin T1 (Homo sapiens, UniProt P50750); assay: LanthaScreen Eu Kinase Binding Assay, CDK9/Cyclin T1; conditions: tracer 236, read-out: CDK9/Cyclin T1 (activity range), Kd
T1 construct: His; purchased Invitrogen
Procedure: (§1) This protocol describes how the LanthaScreen Eu Kinase Binding Assay was performed to determine dissociation constants (Kd) of compounds of general formula (I) and CDK/Cyclin complexes. The principle behind this assay is based upon the binding and displacement of an Alexa Fluor 647-labeled tracer, which binds to the active site of kinases. Binding of the tracer to the kinase is detected using a Eu-labeled antibody. Simultaneous binding of both the tracer and antibody to the kinase gives rise to a FRET-signal. Binding of an inhibitor to the kinase competes for binding with the tracer, resulting in a loss of FRET.
(§2) The compounds of general formula (I) summarized in Table 1 were diluted from a 10 mM DMSO stock solution 1:10 in a total volume of 15 μL DMSO. This compound predilution was then serial diluted 1:3 over 8 steps in DMSO and briefly spun down. Each compound solution was now diluted 1:33.33 in kinase buffer (HEPES: 20 mM, pH: 8.0; MgCl2: 10 mM; DTT: 1 mM; Brij-35: 0,01%), mixed thoroughly and spun down. For every sample, 5 μL of the diluted compound were mixed with 5 μL tracer working solution (e.g. 60 nM tracer 236 in kinase buffer for CDK2/Cyclin A) and 5 μL CDK/Cyclin/Anti-GST-AB-working solution (e.g. 15 nM CDK2/Cyclin A, 1:250 dilution of Anti-GST-AB in kinase buffer) in a well of a small volume 384 well plate (Corning Incorporated, Corning, N.Y., USA; order no. 3673). The tracer concentration was adjusted to its dissociation constant (Kd) for the CDK/Cyclin, which was 30 nM for CDK2/Cyclin A, CDK7/Cyclin H and CDK9/Cyclin T1, 20 nM for CDK8/Cyclin C, and 35 nM for CDK9/Cyclin K. For negative controls, in each well 5 μL of DMSO working solution (3% DMSO diluted in kinase buffer) was mixed with 5 μL Anti-GST-AB working solution (e.g. 1:250 dilution of Anti-GST-AB in kinase buffer for CDK2/Cyclin A) and 5 μL Tracer working solution (e.g. 60 nM Tracer 236 in kinase buffer for CDK2/Cyclin A). For positive controls, in each well 5 μL of DMSO working solution (3% DMSO diluted in kinase buffer) was mixed with 5 μL CDK/Cyclin/Anti-GST-AB-working solution: (e.g. 15 nM CDK2/Cyclin A, 1:250 dilution of Anti-GST-AB in kinase buffer) and 5 μL Tracer working solution (e.g. 60 nM Tracer 236 in kinase buffer for CDK2/Cyclin A). Positive and negative controls were calculated from at least 8 different sample wells. The 384 well plates were mixed in a Teleshaker plate mixer (Beckman Coulter, Brea, Calif., USA) at 2000 rpm for 40 sec, and incubated for 1 h at room temperature before reading. The FRET signal was measured at 340 nm excitation, 665 nm and 615 nm emission (for the kinase tracer and LanthaScreen Eu-AB, respectively) with an Envision spectrophotometer (Perkin Elmer, Waltham, Mass., USA) with […]. Kd values were determined from the sigmoidal dose response curves with the software Quattro Workflow (Quattro GmbH, Munich, Germany).

CDK9/Cyclin K = biological target: T2, CDK9/Cyclin K (Homo sapiens, UniProt P50750); assay: LanthaScreen Eu Kinase Binding Assay, CDK9/Cyclin K; conditions: tracer 236, read-out: CDK9/Cyclin K (activity range), Kd
T2 construct: His; purchased Invitrogen
Procedure: as §1, §2

CDK7/CyclinH/MAT1 = biological target: T3, CDK7/CyclinH/MAT1 (Homo sapiens, UniProt P50613); assay: LanthaScreen Eu Kinase Binding Assay, CDK7; conditions: tracer 236, read-out: CDK7 (activity range), Kd
T3 construct: His; purchased Carna Biosciences
Procedure: as §1, §2

T3 sequence (P50613 whole entry): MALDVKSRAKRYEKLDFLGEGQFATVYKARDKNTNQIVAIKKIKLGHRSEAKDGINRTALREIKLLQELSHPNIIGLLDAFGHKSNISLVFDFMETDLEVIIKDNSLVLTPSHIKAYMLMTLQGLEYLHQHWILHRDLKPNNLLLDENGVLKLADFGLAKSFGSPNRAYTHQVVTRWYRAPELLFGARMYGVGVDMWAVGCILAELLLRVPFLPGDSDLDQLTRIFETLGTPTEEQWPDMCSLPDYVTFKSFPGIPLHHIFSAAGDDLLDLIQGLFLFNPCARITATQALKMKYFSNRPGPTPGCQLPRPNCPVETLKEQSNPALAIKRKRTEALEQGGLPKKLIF
T3 sequence (P51946 whole entry partner): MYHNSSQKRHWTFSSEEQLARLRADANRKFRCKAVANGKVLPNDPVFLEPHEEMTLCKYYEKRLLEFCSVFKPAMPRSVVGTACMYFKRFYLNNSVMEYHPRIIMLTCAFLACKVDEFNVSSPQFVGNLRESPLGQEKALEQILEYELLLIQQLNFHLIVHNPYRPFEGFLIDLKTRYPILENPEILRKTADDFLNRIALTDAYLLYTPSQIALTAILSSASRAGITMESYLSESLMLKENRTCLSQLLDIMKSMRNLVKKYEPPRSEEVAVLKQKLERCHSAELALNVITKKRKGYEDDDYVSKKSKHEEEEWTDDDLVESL
T3 sequence (P51948 whole entry partner): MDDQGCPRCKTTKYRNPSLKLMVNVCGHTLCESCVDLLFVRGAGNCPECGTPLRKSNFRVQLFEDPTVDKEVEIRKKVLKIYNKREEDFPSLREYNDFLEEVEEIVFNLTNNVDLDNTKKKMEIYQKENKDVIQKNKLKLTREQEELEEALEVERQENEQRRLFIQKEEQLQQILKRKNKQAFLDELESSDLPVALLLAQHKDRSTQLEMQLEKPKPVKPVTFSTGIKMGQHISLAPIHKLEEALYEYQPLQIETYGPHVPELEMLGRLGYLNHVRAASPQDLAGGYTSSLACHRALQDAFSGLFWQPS
T2 sequence (P50750 whole entry): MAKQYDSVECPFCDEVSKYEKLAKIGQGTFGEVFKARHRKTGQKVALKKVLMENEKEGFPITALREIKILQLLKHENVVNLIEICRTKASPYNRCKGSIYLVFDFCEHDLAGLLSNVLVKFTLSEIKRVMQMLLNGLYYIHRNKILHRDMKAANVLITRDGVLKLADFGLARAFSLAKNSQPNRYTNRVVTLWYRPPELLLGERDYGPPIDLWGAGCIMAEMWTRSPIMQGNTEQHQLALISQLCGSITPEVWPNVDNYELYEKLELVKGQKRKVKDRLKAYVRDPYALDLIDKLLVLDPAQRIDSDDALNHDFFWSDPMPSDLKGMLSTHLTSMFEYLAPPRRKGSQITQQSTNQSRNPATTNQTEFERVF
T2 sequence (O75909 1-357 isoform O75909-1 partner): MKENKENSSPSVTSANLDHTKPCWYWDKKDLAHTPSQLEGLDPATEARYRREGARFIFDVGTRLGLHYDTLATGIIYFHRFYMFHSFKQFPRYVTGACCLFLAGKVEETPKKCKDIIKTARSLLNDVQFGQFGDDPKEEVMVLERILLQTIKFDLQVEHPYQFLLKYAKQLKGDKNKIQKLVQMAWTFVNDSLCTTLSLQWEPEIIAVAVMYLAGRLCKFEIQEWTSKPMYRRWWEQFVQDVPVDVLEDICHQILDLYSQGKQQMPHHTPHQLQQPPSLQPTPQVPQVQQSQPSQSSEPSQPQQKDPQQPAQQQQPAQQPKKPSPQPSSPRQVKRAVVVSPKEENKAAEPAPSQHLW
T1 sequence (P50750 whole entry): as the sequence (P50750 whole entry) above
T1 sequence (O60563 whole entry partner): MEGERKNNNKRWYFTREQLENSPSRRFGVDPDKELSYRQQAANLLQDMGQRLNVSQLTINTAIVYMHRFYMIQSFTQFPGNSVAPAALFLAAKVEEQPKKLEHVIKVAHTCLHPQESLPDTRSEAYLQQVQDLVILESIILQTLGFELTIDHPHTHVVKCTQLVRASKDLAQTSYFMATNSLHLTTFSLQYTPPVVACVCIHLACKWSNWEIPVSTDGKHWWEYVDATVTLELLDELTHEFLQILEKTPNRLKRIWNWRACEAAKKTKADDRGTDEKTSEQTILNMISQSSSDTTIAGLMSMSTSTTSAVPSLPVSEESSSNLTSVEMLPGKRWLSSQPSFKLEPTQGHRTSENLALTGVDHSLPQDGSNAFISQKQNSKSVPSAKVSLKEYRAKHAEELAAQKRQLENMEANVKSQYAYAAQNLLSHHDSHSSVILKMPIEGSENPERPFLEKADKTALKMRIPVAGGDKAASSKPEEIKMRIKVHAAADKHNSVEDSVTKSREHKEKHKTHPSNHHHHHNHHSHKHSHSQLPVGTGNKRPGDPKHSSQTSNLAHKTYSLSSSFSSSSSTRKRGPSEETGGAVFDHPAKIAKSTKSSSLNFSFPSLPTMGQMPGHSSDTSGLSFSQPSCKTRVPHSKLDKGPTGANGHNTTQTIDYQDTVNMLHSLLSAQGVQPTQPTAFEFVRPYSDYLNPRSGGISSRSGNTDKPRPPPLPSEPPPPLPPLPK

SMILES	Kd (CDK9/Cyclin T1) [µM]	Kd (CDK9/Cyclin K) [µM]	Kd (CDK7/CyclinH/MAT1) [µM]
NS(=O)(=O)Cc1cccc(Nc2ncnc(N3CCCC(F)(F)C3)n2)c1 [Compound B3, 3-[(4-(3,3-Difluoropiperidin-1-yl)-1,3,5-triazin-2-yl)amino]-benzenemethanesulfonamide]	0.1 to 1	0.1 to 1	> 10
NS(=O)(=O)Cc1cccc(Nc2ncnc(N3CCC(F)(F)CC3)n2)c1 [Compound B2, 3-[(4-(4,4-Difluoropiperidin-1-yl)-1,3,5-triazin-2-yl)amino]-benzenemethanesulfonamide]	0.1 to 1	0.1 to 1	> 10
CC(C)(C)OC(=O)NCC1CCCCN1c1ncnc(Nc2cccc(CS(N)(=O)=O)c2)n1 (racemic) [Compound B7, rac-tert-Butyl[(1-(4-((3-(Sulfamoylmethyl)phenyl)amino)-1,3,5-triazin-2-yl)piperidine-2-yl)methyl]carbamate]	> 10	> 10	> 10
COC(=O)[C@@H]1CCCN1c1ncnc(Nc2cccc(CS(N)(=O)=O)c2)n1 [Compound B22, (S)-Methyl 1-[4-((3-(Sulfamoylmethyl)phenyl)amino)-1,3,5-triazin-2-yl]pyrrolidine-2-carboxylate]	> 10	> 10	> 10
COC[C@H]1CC[C@H](COC)N1c1ncnc(Nc2cccc(CS(N)(=O)=O)c2)n1 [Compound B19, 3-[(4-((2R,5R)-Bis(methoxymethyl)pyrrolidin-1-yl)-1,3,5-triazin-2-yl)amino]benzenemethanesulfonamide]	> 10	> 10	> 10
NS(=O)(=O)Cc1cccc(Nc2ncnc(N3CCCC3)n2)c1 [Compound B14, 3-[(4-(Pyrrolidin-1-yl)-1,3,5-triazin-2-yl)amino]benzenemethane sulfonamide]	0.1 to 1	1 to 10	> 10
NS(=O)(=O)Cc1cccc(Nc2ncnc(N3CCC[C@H]3C(F)(F)F)n2)c1 [Compound B16, (S)-3-[(4-(2-(Trifluoromethyl)pyrrolidin-1-yl)-1,3,5-triazin-2-yl)amino]-benzenemethanesulfonamide]	0.1 to 1	1 to 10	> 10
NC(=O)[C@H]1CCCN1c1ncnc(Nc2cccc(CS(N)(=O)=O)c2)n1 [Compound B23, (R)-1-[4-((3-(Sulfamoylmethyl)phenyl)amino)-1,3,5-triazin-2-yl]pyrrolidine-2-carboxamide]	> 10	> 10	> 10
C[C@@H]1CCCN1c1ncnc(Nc2cccc(CS(N)(=O)=O)c2)n1 [Compound B15, (R)-3-[(4-(2-Methylpyrrolidin-1-yl)-1,3,5-triazin-2-yl)amino]-benzenemethanesulfonamide]	0.1 to 1	1 to 10	> 10
NS(=O)(=O)Cc1cccc(Nc2ncnc(N3CCNCC3CO)n2)c1 (racemic) [Compound B13, rac-3-[(4-(2-(Hydroxymethyl)piperazin-1-yl)-1,3,5-triazin-2-yl)amino]benzenemethanesulfonamide]	> 10	> 10	–
COCC1CCCCN1c1ncnc(Nc2cccc(CS(N)(=O)=O)c2)n1 (racemic) [Compound B4, rac-3-[(4-(2-Methoxymethylpiperidin-1-yl)-1,3,5-triazin-2-yl)amino]-benzenemethanesulfonamide]	0.1 to 1	0.1 to 1	> 10
COC[C@@H]1CC[C@@H](COC)N1c1ncnc(Nc2cccc(CS(N)(=O)=O)c2)n1 [Compound B20]	> 10	> 10	> 10
CN1CCN(c2ncnc(Nc3cccc(CS(N)(=O)=O)c3)n2)CC1 [Compound B12, 3-[(4-(4-Methylpiperazin-1-yl)-1,3,5-triazin-2-yl)amino]-benzenemethanesulfonamide]	> 10	> 10	> 10
NS(=O)(=O)Cc1cccc(Nc2ncnc(N3CCNCC3)n2)c1 [Compound B11, 3-[(4-(piperazin-1-yl)-1,3,5-triazin-2-yl)amino]benzenemethane sulfonamide]	> 10	> 10	> 10

Second part, the compound after the results:

Kd (CDK9/Cyclin T1) [µM]	Kd (CDK9/Cyclin K) [µM]	Kd (CDK7/CyclinH/MAT1) [µM]	SMILES
1 to 10	1 to 10	> 10	NS(=O)(=O)Cc1cccc(Nc2ncnc(N3CCC[C@@H]3CNc3ccccc3)n2)c1 [Compound B29, (R)-3-[(4-(2-(Phenylamino-methyl)pyrrolidin-1-yl)-1,3,5-triazin-2-yl)amino]benzenemethanesulfonamide]
1 to 10	1 to 10	> 10	NS(=O)(=O)Cc1cccc(Nc2ncnc(N3CCn4ccnc4C3)n2)c1 [Compound B46, 3-[(4-(5,6-Dihydroimidazo[1,2-a]pyrazin-7(8H)-yl)-1,3,5-triazin-2-yl)amino]benzenemethanesulfonamide]
1 to 10	0.1 to 1	> 10	NS(=O)(=O)Cc1cccc(Nc2ncnc(N3Cc4cccnc4C3)n2)c1 [Compound B48, 3-[(4-(5H-Pyrrolo[3,4-b]pyridin-6(7H)-yl)-1,3,5-triazin-2-yl)amino]-benzenemethanesulfonamide]
1 to 10	1 to 10	> 10	NS(=O)(=O)Cc1cccc(Nc2ncnc(N3CCC[C@@H]3COc3ccccc3)n2)c1 [Compound B28, (R)-3-[(4-(2-(Phenoxymethyl)pyrrolidin-1-yl)-1,3,5-triazin-2-yl)amino]-benzenemethanesulfonamide]
0.1 to 1	0.1 to 1	> 10	NS(=O)(=O)Cc1cccc(Nc2ncnc(N3CCCC3Cc3ccccc3)n2)c1 (racemic) [Compound B26, rac-3-[(4-(2-Benzylpyrrolidin-1-yl)-1,3,5-triazin-2-yl)amino]-benzenemethanesulfonamide]
1 to 10	1 to 10	> 10	COC(=O)[C@H]1CCN1c1ncnc(Nc2cccc(CS(N)(=O)=O)c2)n1 [Compound B36, (R)-Methyl 1-[4-((3-(Sulfamoylmethyl)phenyl)amino)-1,3,5-triazin-2-yl]azetidine-2-carboxylate]
0.1 to 1	1 to 10	> 10	NS(=O)(=O)Cc1cccc(Nc2ncnc(N3CCc4ncncc4C3)n2)c1 [Compound B39, 3-[(4-(7,8-Dihydropyrido[4,3-d]pyrimidin-6(5H)-yl)-1,3,5-triazin-2-yl)amino]benzenemethanesulfonamide]
> 10	> 10	> 10	NS(=O)(=O)Cc1cccc(Nc2ncnc(N3CCC[C@H]3CN3CCCC3)n2)c1 [Compound B32, (S)-3-[(4-(2-((Pyrrolidin-1-yl)methyl)pyrrolidin-1-yl)-1,3,5-triazin-2-yl)amino]benzenemethanesulfonamide]
0.1 to 1	1 to 10	> 10	NS(=O)(=O)Cc1cccc(Nc2ncnc(N3Cc4cncnc4C3)n2)c1 [Compound B50, 3-[(4-(5H-Pyrrolo[3,4-d]pyrimidin-6(7H)-yl)-1,3,5-triazin-2-yl)amino]-benzenemethanesulfonamide]
0.1 to 1	0.1 to 1	> 10	NS(=O)(=O)Cc1cccc(Nc2ncnc(N3CCC3c3ccccc3)n2)c1 (racemic) [Compound B37, rac-3-[(4-(2-Phenylazetidin-1-yl)-1,3,5-triazin-2-yl)amino]-benzenemethanesulfonamide]
1 to 10	1 to 10	> 10	Nc1cccc2c1CCN(c1ncnc(Nc3cccc(CS(N)(=O)=O)c3)n1)C2 [Compound B41, 3-[(4-(5-Amino-3,4-dihydroisoquinolin-2(1H)-yl)-1,3,5-triazin-2-yl)amino]benzenemethanesulfonamide]
